# Experimental data as given in PubChem BioAssay (NCI).
# “And” between values parts separate entries of the source, which are not always exact repeats. Equal entries are not always repeated.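 Cells were grown in 96-well plates and exposed to each compound for 48 hours at five concentrations; endpoints were interpolated linearly between bracketing concentrations, or set to the highest concentration if not reached. GI50 marks 50% less growth. TGI denotes the concentration required for complete inhibition of growth.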
# Experiments:
# Assay in all cases: NCI tumour cell line growth inhibition, 48 h
# SK-MEL-28 melanoma = system: SK-MEL-28 melanoma
# SK-OV-3 ovarian = system: SK-OV-3 ovarian
# OVCAR-4 ovarian = system: OVCAR-4 ovarian
# SN12C renal = system: SN12C renal
# MCF7 breast = system: MCF7 breast
# SNB-75 CNS = system: SNB-75 CNS
# HOP-92 NSCLC = system: HOP-92 NSCLC
# BT-549 breast = system: BT-549 breast
# MDA-MB-435 = system: MDA-MB-435
# SR leukemia = system: SR leukemia
Structure (SMILES),TGI (SK-MEL-28 melanoma),TGI (SK-OV-3 ovarian),TGI (OVCAR-4 ovarian),TGI (SN12C renal),TGI (MCF7 breast),TGI (SNB-75 CNS),TGI (HOP-92 NSCLC),TGI (BT-549 breast),TGI (MDA-MB-435),TGI (SR leukemia),GI50 (BT-549 breast),GI50 (SK-MEL-28 melanoma),GI50 (OVCAR-4 ovarian),GI50 (HOP-92 NSCLC)
O=C(CCN1CCOCC1)/C(=C/c1ccccc1)c1ccccc1,20.3 µM,43.3 µM,23.8 µM,14.5 µM,18.8 µM,21.8 µM,13 µM,,,,,,,
CSC(SC)=C(C#N)C(=O)Nc1cccc(Cl)c1,> 100 µM,> 100 µM,> 100 µM,> 100 µM,> 100 µM,> 100 µM,55.6 µM,> 100 µM,> 100 µM,,,,,
O=c1[nH]nc(-c2ccccc2)n1/N=C/c1ccc([N+](=O)[O-])o1,10.3 µM,65.6 µM,16.7 µM,13.5 µM,7.21 µM,> 70.2 µM,> 24.1 µM,,10.9 µM,> 100 µM,,,,
CC(C(=O)OCc1ccccc1)N(Cc1ccccc1)Cc1ccccc1 (stereo unspecified),> 100 µM,> 100 µM,> 100 µM,> 100 µM,,> 100 µM,> 100 µM,,,> 100 µM,,,,
O=C(O)CCC(=O)OCN1C(=O)C2C3C=CC(C2C1=O)C1C2C(=O)N(COC(=O)CCC(=O)O)C(=O)C2C31 (stereo unspecified),> 100 µM,> 100 µM,> 100 µM,> 100 µM,,> 100 µM,> 100 µM,,,52.4 µM,,,,
COC(=O)[C@H](Cc1c[nH]c2ccccc12)NP(=O)(OCCC#N)OCC1OC(n2cc(C)c(=O)[nH]c2=O)CC1N=[N+]=[N-] (stereo partly specified),,> 100 µM,> 100 µM,> 100 µM,> 100 µM,> 100 µM,> 100 µM,> 100 µM,> 100 µM,,,,,
COc1ccc(C2C3=C(N=C4SC(C(C)=O)=C(C)N42)c2ccccc2CC3)cc1 (stereo unspecified),> 100 µM,> 100 µM,> 100 µM,> 100 µM,> 100 µM,> 100 µM,> 100 µM,> 100 µM,> 100 µM,,,,,
N#Cc1nc2cc(Cl)ccc2nc1N1CCN(c2ccc([N+](=O)[O-])cc2)CC1,> 100 µM,> 100 µM,> 100 µM,> 100 µM,> 100 µM,> 100 µM,,> 100 µM,> 100 µM,,,,,
COC(C/C(=C/CO[Si](C(C)C)(C(C)C)C(C)C)C(=O)N(COCC[Si](C)(C)C)c1ccccc1I)OC,50 µM,> 100 µM,> 100 µM,> 100 µM,,> 100 µM,> 100 µM,,29.1 µM,> 100 µM,,,,
CCn1c(=O)c2nc(SC)sc2n(-c2ccc(C)cc2)c1=O,> 100 µM,> 100 µM,> 100 µM,> 100 µM,> 100 µM,> 95.1 µM,> 100 µM,> 100 µM,,> 100 µM,33 µM,,,
CC(C)(C)c1ccc(C(O)CCCN2CCC(C(O)(c3ccccc3)c3ccccc3)CC2)cc1 (stereo unspecified),3.11 µM and 19.2 µM,,2.75 µM,,,,2.6 µM,,,,,1.72 µM and 13.9 µM,1.44 µM,1.2 µM
Cc1cc2[nH]c3c(C#N)c(-c4ccccc4)c(N=Nc4ccc(F)cc4)c(=O)n3c2cc1C,> 100 µM,> 100 µM,> 100 µM,> 100 µM,> 100 µM,> 100 µM,,> 100 µM,> 100 µM,,,,,
CN(Cc1cnc2nc(N)nc(N)c2n1)c1ccc(C(=O)NC23CC4CC(CC(C4)C2)C3)cc1,,31.9 µM,,56.8 µM,23.6 µM,38.9 µM,,31.1 µM,31.6 µM,> 100 µM,,,,
CCOC(=O)c1ccc(Nc2nc3ccccc3nc2-c2cccs2)cc1,> 100 µM,,,99.3 µM,> 100 µM,> 100 µM,,,> 100 µM,> 100 µM,,,,
COc1ccccc1OCC(COC(=O)Nc1ccccc1)OC(=O)Nc1ccccc1 (stereo unspecified),> 100 µM,> 100 µM,> 100 µM,> 100 µM,,45.6 µM,28.7 µM,,,,,,,
Cc1nc2cc(F)c(F)cc2[nH]c1=O,> 100 µM,> 100 µM,> 100 µM,> 100 µM,> 100 µM,> 100 µM,> 100 µM,> 100 µM,> 100 µM,,,,,
O=P1(N2CCOCC2)OCCO1,> 100 µM,,> 100 µM,> 100 µM,> 100 µM,,> 100 µM,,> 100 µM,> 100 µM,,,,
